# Assay results taken from patent US9630977B2, “Cephalosporin derivatives and pharmaceutical compositions thereof” (Legochem Biosciences, Inc., priority 2011, dated 2017).
# Read-outs that look alike come from different tables or passages of the source.
# Columns and labels:
# Assay in all cases: In vitro antibacterial activity test (broth microdilution)
# Type in all cases: cell-based
# A. baumannii 49 = test system: A. baumannii 49
# Protocol: (§1) To evaluate antibacterial activity of each of the compounds of Examples 1 to 68, in vitro antibacterial activity test was performed.
# (§2) The in vitro antibacterial activity was evaluated by measuring MIC90 (ug/mL) of each of the compounds of Examples 1 to 68, which is defined as the lowest concentration of an antibiotic that will inhibit the visible growth of 90% of microorganisms after incubation as compared with a control group to which the antibiotic is not treated. MIC90 values were measured by the broth microdilution method developed by the Clinical and Laboratory Standards Institute (CLSI) (see CLSI M7-A5, Methods for Dilution Antimicrobial Susceptibility Test for Bacteria that Grow Aerobically-Fifth Edition (2000): CLSI, Villanova, Pa.).
# (§3) In vitro antibacterial activity was measured with respect to the following 19 clinical isolates: M. catarrhalis; P. aeruginosa (5 strains); K. pneumoniae (6 strains); A. baumannii (3 strains); E. coli (2 strains); A. calcoaceticus; and E. cloacae.
# (§4) Test compounds each (the cephalosporin derivative compounds prepared in Examples 1 to 68) were dissolved in DMSO at the concentration of 10,240 ug/mL, were diluted by two fold with DMSO, and then were diluted by twenty fold with sterilized distilled water. The final concentration in the antibacterial activity test was in the range of […] to 128 ug/mL, and the final concentration of DMSO used as an adjuvant was 2.5% (V/V).
# P. aeruginosa 37 = settings: Pseudomonas aeruginosa, 37, P. aeruginosa 37
# Protocol: as §1, §2, §3, §4
# A. baumannii 46 = test system: A. baumannii 46
# Protocol: as §1, §2, §3, §4
# P. aeruginosa 43 = settings: Pseudomonas aeruginosa
# Protocol: as §1, §2, §3, §4
# E. coli β4 = settings: Escherichia coli
# Protocol: as §1, §2, §3, §4
# P. aeruginosa 6065Y = settings: Pseudomonas aeruginosa
# Protocol: as §1, §2, §3, §4
# P. aeruginosa 40 = test system: P. aeruginosa 40
# Protocol: as §1, §2, §3, §4
# A. baumannii 52 = settings: Acinetobacter baumannii
# Protocol: as §1, §2, §3, §4
# [1] = test system: A. calcoaceticus ATCC15473; settings: Acinetobacter calcoaceticus
# Protocol: as §1, §2, §3, §4
# K. pneumoniae β14 = settings: Klebsiella pneumoniae
# Protocol: as §1, §2, §3, §4
# E. cloacae β19 = settings: Enterobacter cloacae
# Protocol: as §1, §2, §3, §4
# E. coli AG100 = settings: Escherichia coli
# Protocol: as §1, §2, §3, §4
# P. aeruginosa 1912E = settings: Pseudomonas aeruginosa, 1912E
# Protocol: as §1, §2, §3, §4
# K. pneumoniae 2011E = settings: Klebsiella pneumoniae, 2011E
# Protocol: as §1, §2, §3, §4
# [2] = Acinetobacter baumannii, A. baumannii 49, read-out: MIC90
# [3] = Acinetobacter baumannii, A. baumannii 46, read-out: MIC90
# [4] = P. aeruginosa 43, read-out: MIC90
# [5] = Pseudomonas aeruginosa, 40, P. aeruginosa 40, read-out: MIC90
# [6] = A. baumannii 52, read-out: MIC90
# [7] = A. calcoaceticus ATCC15473, read-out: MIC90
# [8] = AG100, E. coli AG100, read-out: MIC90
# [9] = K. pneumoniae 2011E, read-out: MIC90
Compound,MIC90 (A. baumannii 49; [2]) [µg/mL],MIC90 (P. aeruginosa 37; read-out: MIC90) [µg/mL],MIC90 (A. baumannii 46; [3]) [µg/mL],MIC90 (P. aeruginosa 43; [4]) [µg/mL],MIC90 (E. coli β4; read-out: MIC90) [µg/mL],MIC90 (P. aeruginosa 6065Y; read-out: MIC90) [µg/mL],MIC90 (P. aeruginosa 40; [5]) [µg/mL],MIC90 (A. baumannii 52; [6]) [µg/mL],"MIC90 [1, 7] [µg/mL]",MIC90 (K. pneumoniae β14; read-out: MIC90) [µg/mL],MIC90 (E. cloacae β19; read-out: MIC90) [µg/mL],MIC90 (E. coli AG100; [8]) [µg/mL],MIC90 (P. aeruginosa 1912E; read-out: MIC90) [µg/mL],MIC90 (K. pneumoniae 2011E; [9]) [µg/mL],further results
CN(CCNc1c[n+](CC2=C(C(=O)[O-])N3C(=O)[C@@H](NC(=O)/C(=N\OC(C)(C)C(=O)O)c4csc(N)n4)C3SC2)cnc1N)Cc1ccc(O)c(O)c1 (some centres unmarked) [Compound 29],32,2,8,4,2,8,4,32,4,16,8,2,2,8,–
CNc1nc[n+](CC2=C(C(=O)[O-])N3C(=O)[C@@H](NC(=O)/C(=N\OC(C)(C)C(=O)O)c4csc(N)n4)C3SC2)cc1N (some centres unmarked) [Compound 39],> 128,128,8,4,16,128,32,> 128,8,8,128,1,8,1,–
CC(C)(O/N=C(\C(=O)N[C@@H]1C(=O)N2C(C(=O)[O-])=C(C[n+]3cnc(N)c(NCCCC(=O)O)c3)CSC12)c1csc(N)n1)C(=O)O (some centres unmarked) [Compound 38],> 128,> 128,128,–,16,128,64,> 128,16,64,> 128,8,32,4,–
CC(C)(O/N=C(\C(=O)N[C@@H]1C(=O)N2C(C(=O)[O-])=C(C[n+]3cnc(N)c(N)c3)CSC12)c1csc(N)n1)C(=O)O (some centres unmarked) [Compound 36],> 128,> 128,64,–,16,64,16,> 128,2,16,> 128,0.5,8,0.5,–
CC(C)(O/N=C(\C(=O)N[C@@H]1C(=O)N2C(C(=O)[O-])=C(C[n+]3cnc(N)c(NCCNC(=N)N)c3)CSC12)c1csc(N)n1)C(=O)O (some centres unmarked) [Compound 40],–,–,–,–,–,–,–,–,–,–,–,–,–,–,"MIC90 (A. baumannii 49; Acinetobacter baumannii, 49, A. baumannii 49): 128 µg/mL; MIC90 (P. aeruginosa 37): 8 µg/mL; MIC90 (A. baumannii 46; Acinetobacter baumannii, 46, A. baumannii 46): 2 µg/mL; MIC90 (P. aeruginosa 43; 43): 32 µg/mL; MIC90 (E. coli β4): 8 µg/mL; MIC90 (P. aeruginosa 6065Y; 6065Y): 16 µg/mL; MIC90 (P. aeruginosa 40; Pseudomonas aeruginosa, 40): 8 µg/mL; MIC90 (A. baumannii 52; 52): 128 µg/mL; MIC90 ([1]; ATCC15473, A. calcoaceticus ATCC15473): 0.25 µg/mL; MIC90 (K. pneumoniae β14): 8 µg/mL; MIC90 (E. cloacae β19): 32 µg/mL; MIC90 (E. coli AG100; AG100): 4 µg/mL; MIC90 (P. aeruginosa 1912E): 4 µg/mL; MIC90 (K. pneumoniae 2011E): 16 µg/mL"

# Second part, led by results:
MIC90 (A. baumannii 49; [2]) [µg/mL],MIC90 (P. aeruginosa 37; read-out: MIC90) [µg/mL],MIC90 (A. baumannii 46; [3]) [µg/mL],MIC90 (P. aeruginosa 43; [4]) [µg/mL],MIC90 (E. coli β4; read-out: MIC90) [µg/mL],MIC90 (P. aeruginosa 6065Y; read-out: MIC90) [µg/mL],MIC90 (P. aeruginosa 40; [5]) [µg/mL],MIC90 (A. baumannii 52; [6]) [µg/mL],"MIC90 [1, 7] [µg/mL]",MIC90 (K. pneumoniae β14; read-out: MIC90) [µg/mL],MIC90 (E. cloacae β19; read-out: MIC90) [µg/mL],MIC90 (E. coli AG100; [8]) [µg/mL],MIC90 (P. aeruginosa 1912E; read-out: MIC90) [µg/mL],MIC90 (K. pneumoniae 2011E; [9]) [µg/mL],Compound,further results
> 128,2,1,0.5,2,0.5,0.5,128,1,16,4,0.125,1,0.5,CC(C)(O/N=C(\C(=O)N[C@@H]1C(=O)N2C(C(=O)[O-])=C(C[n+]3cnc(N)c(NCCNC(=O)c4ccc(O)c(O)c4)c3)CSC12)c1csc(N)n1)C(=O)O (some centres unmarked) [Compound 30],–
128,128,8,–,8,16,4,128,1,32,128,0.5,4,1,CC(=O)Nc1c[n+](CC2=C(C(=O)[O-])N3C(=O)[C@@H](NC(=O)/C(=N\OC(C)(C)C(=O)O)c4csc(N)n4)C3SC2)cnc1N (some centres unmarked) [Compound 68],–
